Activity calls are given as the source filed them. The rule behind the calls is not given here.
System: CCRIS mutagenicity, Ames/micronucleus/aberration tests
Experiment: CCRIS mutagenicity studies

O=S(O)S(=O)O
mutagenic call (Test System: AMES SALMONELLA TYPHIMURIUM, Strain/Indicator: TA97, Metabolic Activation: NONE, Method: PREINCUBATION): inactive; negative
mutagenic call (Test System: AMES SALMONELLA TYPHIMURIUM, Strain/Indicator: TA97, Metabolic Activation: RAT, LIVER, S-9, AROCLOR 1254, Method: PREINCUBATION): inactive; negative
mutagenic call (Test System: AMES SALMONELLA TYPHIMURIUM, Strain/Indicator: TA98, Metabolic Activation: NONE, Method: PREINCUBATION): inactive; negative
mutagenic call (Test System: AMES SALMONELLA TYPHIMURIUM, Strain/Indicator: TA98, Metabolic Activation: RAT LIVER S-9, PHENOBARBITAL AND BETA-NAPHTHOFLAVONE, Method: PREINCUBATION): inactive; negative
mutagenic call (Test System: AMES SALMONELLA TYPHIMURIUM, Strain/Indicator: TA98, Metabolic Activation: RAT, LIVER, S-9, KC 500, Method: PREINCUBATION): inactive; negative
mutagenic call (Test System: AMES SALMONELLA TYPHIMURIUM, Strain/Indicator: TA100, Metabolic Activation: NONE, Method: PREINCUBATION): inactive; negative
mutagenic call (Test System: AMES SALMONELLA TYPHIMURIUM, Strain/Indicator: TA100, Metabolic Activation: RAT LIVER S-9, PHENOBARBITAL AND BETA-NAPHTHOFLAVONE, Method: PREINCUBATION): inactive; negative
mutagenic call (Test System: AMES SALMONELLA TYPHIMURIUM, Strain/Indicator: TA100, Metabolic Activation: RAT, LIVER, S-9, KC 500, Method: PREINCUBATION): inactive; negative
mutagenic call (Test System: AMES SALMONELLA TYPHIMURIUM, Strain/Indicator: TA102, Metabolic Activation: NONE, Method: PREINCUBATION): inactive; negative
mutagenic call (Test System: AMES SALMONELLA TYPHIMURIUM, Strain/Indicator: TA102, Metabolic Activation: RAT, LIVER, S-9, AROCLOR 1254, Method: PREINCUBATION): inactive; negative
mutagenic call (Test System: AMES SALMONELLA TYPHIMURIUM, Strain/Indicator: TA1535, Metabolic Activation: NONE, Method: PREINCUBATION): inactive; negative
mutagenic call (Test System: AMES SALMONELLA TYPHIMURIUM, Strain/Indicator: TA1535, Metabolic Activation: RAT LIVER S-9, PHENOBARBITAL AND BETA-NAPHTHOFLAVONE, Method: PREINCUBATION): inactive; negative
mutagenic call (Test System: AMES SALMONELLA TYPHIMURIUM, Strain/Indicator: TA1535, Metabolic Activation: RAT, LIVER, S-9, KC 500, Method: PREINCUBATION): inactive; negative
mutagenic call (Test System: AMES SALMONELLA TYPHIMURIUM, Strain/Indicator: TA1537, Metabolic Activation: NONE, Method: PREINCUBATION): inactive; negative
mutagenic call (Test System: AMES SALMONELLA TYPHIMURIUM, Strain/Indicator: TA1537, Metabolic Activation: RAT LIVER S-9, PHENOBARBITAL AND BETA-NAPHTHOFLAVONE, Method: PREINCUBATION): inactive; negative
mutagenic call (Test System: AMES SALMONELLA TYPHIMURIUM, Strain/Indicator: TA1537, Metabolic Activation: RAT, LIVER, S-9, KC 500, Method: PREINCUBATION): inactive; negative
mutagenic call (Test System: AMES SALMONELLA TYPHIMURIUM, Strain/Indicator: TA1538, Metabolic Activation: NONE, Method: PREINCUBATION): inactive; negative
mutagenic call (Test System: AMES SALMONELLA TYPHIMURIUM, Strain/Indicator: TA1538, Metabolic Activation: RAT LIVER S-9, PHENOBARBITAL AND BETA-NAPHTHOFLAVONE, Method: PREINCUBATION): inactive; negative
mutagenic call (Test System: AMES SALMONELLA TYPHIMURIUM, Strain/Indicator: TA1538, Metabolic Activation: RAT, LIVER, S-9, KC 500, Method: PREINCUBATION): inactive; negative
mutagenic call (Test System: E. COLI, Strain/Indicator: WP2 UVRA, Metabolic Activation: NONE, Method: PREINCUBATION): inactive; negative
mutagenic call (Test System: E. COLI, Strain/Indicator: WP2UVRA, Metabolic Activation: NONE, Method: PREINCUBATION): inactive; negative
mutagenic call (Test System: E. COLI, Strain/Indicator: WP2UVRA, Metabolic Activation: RAT LIVER S-9, PHENOBARBITAL AND BETA-NAPHTHOFLAVONE, Method: PREINCUBATION): inactive; negative
mutagenic call (Test System: E. COLI, Strain/Indicator: WP2 UVRA, Metabolic Activation: RAT, LIVER, S-9, KC 500, Method: PREINCUBATION): inactive; negative

C[As](O)O
mutagenic call (End Point: In vitro micronucleus, Test System: Human peripheral lymphocytes, Metabolic Activation: None): active; positive in all subjects only at highest dose
mutagenic call (Test System: Mouse lymphoma, Strain/Indicator: L5178Y (TK+/TK-), Metabolic Activation: None, Method: Microwell): active; positive

CC(C)(C)c1cc(-c2ccccc2)ccc1NO
mutagenic call (Test System: AMES SALMONELLA TYPHIMURIUM, Strain/Indicator: TA98, Metabolic Activation: NONE, Method: STANDARD PLATE): active; positive
mutagenic call (Test System: AMES SALMONELLA TYPHIMURIUM, Strain/Indicator: TA98, Metabolic Activation: S-9, Method: STANDARD PLATE): active; positive
mutagenic call (Test System: AMES SALMONELLA TYPHIMURIUM, Strain/Indicator: TA100, Metabolic Activation: NONE, Method: STANDARD PLATE): active; positive
mutagenic call (Test System: AMES SALMONELLA TYPHIMURIUM, Strain/Indicator: TA100, Metabolic Activation: S-9, Method: STANDARD PLATE): active; positive

Reference: PubChem BioAssay AID1259407 (Chemical Carcinogenesis Research Information System (CCRIS), 2018)
